Test results from paper PMC8032668, “Evaluation of carboxyfluorescein-labeled 7-methylguanine nucleotides as probes for studying cap-binding proteins by fluorescence anisotropy” (Scientific Reports, 2021).

Assays:
DcpS = biological target: T1, DcpS (Homo sapiens, UniProt Q96C86); experiment: FA screening of in-house library, 2i:DcpS system; format: binding; conditions: 1 nM 2i, 25 nM DcpS, 1.5 µM inhibitor
T1 construct: His tag; made in house; host or cells: E. coli BL21(DE3) RIL
T1 sequence (Q96C86 1-337): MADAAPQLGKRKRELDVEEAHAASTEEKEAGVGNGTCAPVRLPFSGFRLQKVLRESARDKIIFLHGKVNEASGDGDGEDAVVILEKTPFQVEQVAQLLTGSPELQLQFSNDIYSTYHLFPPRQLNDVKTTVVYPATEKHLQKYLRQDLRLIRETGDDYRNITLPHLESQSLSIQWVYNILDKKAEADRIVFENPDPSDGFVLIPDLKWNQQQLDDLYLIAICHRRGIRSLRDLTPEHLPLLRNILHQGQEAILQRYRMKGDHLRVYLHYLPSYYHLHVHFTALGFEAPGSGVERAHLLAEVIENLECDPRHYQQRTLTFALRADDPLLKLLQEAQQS
Procedure: The Z’ factor was determined under conditions optimized for the competition assay. The Z’ value exceeded 0.8 for incubation times up to 1 h, making the assay suitable for screening experiments (Table 5). A screening experiment was then performed using the same compound library as that used for eIF4E screening. The results highlighted the impact of the triphosphate bridge modification on the affinity for the protein. […] The FA method also enabled the identification of unstable compounds, e.g., hydrozylable ligands for which determination of affinity is problematic (as observed by FA signal changes during the experiment; Fig. 7).
To evaluate the quality of the assay, the Z’ factor was determined for several protein-probe combinations. The assay was performed on 96-well microplates, where half of the samples were negative controls and the other half were positive controls.
For the screening experiments a small in-house library containing 21 ligands was used. Experiments were conducted in the same manner as Z’ factor determination, with exception that the ligand concentration was modified (eIF4E screening conditions: 1 nM 1e, 100 nM eIF4E, 750 nM ligand, DcpS screening conditions: 1 nM 2i, 25 nM DcpS, 1.5 µM ligand). For eIF4E screening experiment, the 1e:eIF4E system was used, for DcpS screening 2i:DcpS system was used.

eIF4E = test system: eIF4E; set-up: method as in PMID 22316555; conditions: cited from earlier work

inhibitory potency in DcpS screening (DcpS): strong DcpS inhibitors
Compound: C[n+]1cn([C@@H]2O[C@H](COP(=O)([O-])NP(=O)([O-])OP(=O)([O-])OP(=O)([O-])OC[C@H]3O[C@@H](n4cnc5c(=O)[nH]c(N)nc54)[C@H](O)[C@@H]3O)[C@@H](O)[C@H]2O)c2nc(N)[nH]c(=O)c21.[Na+].[Na+].[Na+] [m^7GpNHpppG]
association constant KAS (eIF4E): 112.3 ± 1.8 µM⁻¹
